This data set can be described thus: activity coefficient (dimensionless); of the first substance listed, at infinite dilution; xn = mol fraction of the nth substance listed. The following applies: 101.3 kPa, Liquid, Chromatography, x1 = 0.

The source of these data is the NIST ThermoML archive (doi:10.1016/j.jct.2015.07.046).

± gives the expanded uncertainty stated by the source.

For the compound `C=Cc1ccccc1` [styrene] + CCn1cc[n+](C)c1.COP(=O)([O-])OC, the activity coefficient runs as follows: (313.15 K) 5.45 ± 0.57; (323.15 K) 5.29 ± 0.56; (333.15 K) 5.16 ± 0.54; (343.15 K) 5.01 ± 0.53; (353.15 K) 4.86 ± 0.51; (363.15 K) 4.71 ± 0.49.
With `C=Cc1ccccc1` [styrene] + COP(=O)([O-])OC.Cn1cc[n+](C)c1, the activity coefficient reads like this: (323.15 K) 6.62 ± 0.7; (333.15 K) 6.61 ± 0.69; (343.15 K) 6.6 ± 0.69; (353.15 K) 6.58 ± 0.69; (363.15 K) 6.57 ± 0.69.
For the compound `Cc1ccccc1` [toluene] + CCn1cc[n+](C)c1.COP(=O)([O-])OC, the activity coefficient by setting is: (313.15 K) 6.45 ± 0.68; (323.15 K) 6.14 ± 0.65; (333.15 K) 5.94 ± 0.62; (343.15 K) 5.73 ± 0.6; (353.15 K) 5.56 ± 0.58; (363.15 K) 5.4 ± 0.57.
As for `Cc1ccccc1` [toluene] + COP(=O)([O-])OC.Cn1cc[n+](C)c1, the activity coefficient runs as follows: (313.15 K) 7.57 ± 0.8; (323.15 K) 7.54 ± 0.79; (333.15 K) 7.51 ± 0.79; (343.15 K) 7.48 ± 0.79; (353.15 K) 7.47 ± 0.79; (363.15 K) 7.45 ± 0.78.
